Experimental data: BindingDB's records for PubMed 36793429 (Therachem Research Medilab, 2023)

What follows are compounds tested against Coagulation factor XI (Homo sapiens) (UniProt P03951) (assay: Inhibition of human factor 11a using GPR-AFC as substrate preincubated for 30 mins followed by substrate addition and measured after 60 mins by fluorescence based analysis).
Chain of Coagulation factor XI (Homo sapiens) (P03951 whole entry, looked up): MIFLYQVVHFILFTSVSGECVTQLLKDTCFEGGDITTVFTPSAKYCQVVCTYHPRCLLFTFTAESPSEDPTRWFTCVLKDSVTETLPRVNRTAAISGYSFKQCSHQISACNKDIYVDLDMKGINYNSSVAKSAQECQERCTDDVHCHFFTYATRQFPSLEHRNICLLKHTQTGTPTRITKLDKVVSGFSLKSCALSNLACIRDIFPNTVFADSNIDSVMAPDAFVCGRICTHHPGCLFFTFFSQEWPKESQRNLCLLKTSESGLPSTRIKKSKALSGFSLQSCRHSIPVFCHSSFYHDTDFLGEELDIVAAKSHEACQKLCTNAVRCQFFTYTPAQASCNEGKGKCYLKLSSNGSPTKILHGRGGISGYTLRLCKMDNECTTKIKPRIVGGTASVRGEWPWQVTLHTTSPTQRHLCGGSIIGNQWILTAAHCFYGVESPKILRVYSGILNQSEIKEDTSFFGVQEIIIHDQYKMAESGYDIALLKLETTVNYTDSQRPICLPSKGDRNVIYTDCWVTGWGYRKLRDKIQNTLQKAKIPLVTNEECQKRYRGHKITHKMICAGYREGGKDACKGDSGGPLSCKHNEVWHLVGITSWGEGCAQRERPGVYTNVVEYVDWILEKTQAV

Compound	IC50
CN1CCCC1c1ccc(CNC(=O)c2cnnc(N3CC[C@]4(C3)OC(=O)Nc3ccc(Cl)c(F)c34)c2)cc1 (stereo not given in full)	10 µM
O=C1Nc2ccc(Cl)c(F)c2[C@]2(CCN(c3cncc(C(=O)NCc4ccc(Cn5ccccc5=O)nc4)n3)C2)O1	10 µM
Cc1cnn(Cc2ccc(CNC(=O)c3cnnc(N4CC[C@]5(C4)OC(=O)Nc4ccc(Cl)c(F)c45)c3)cc2)c1	10 µM
CN1CCN(c2ccc(CNC(=O)c3cncc(N4CC[C@]5(C4)OC(=O)Nc4ccc(Cl)c(F)c45)n3)cn2)CC1	10 µM
N#CC1(F)CN(Cc2ccc(CNC(=O)c3cnnc(N4CC[C@]5(C4)OC(=O)Nc4ccc(Cl)c(F)c45)c3)cc2)C1	10 µM

More lines, now with the values ahead:

IC50	Compound
10 µM	C[C@H]1CCN(c2ccc(CNC(=O)c3cncc(N4CC[C@]5(C4)OC(=O)Nc4ccc(Cl)c(F)c45)n3)cn2)C1
7.44 µM	C[C@H]1CCN(c2ccc(CNC(=O)c3cnnc(N4CC[C@]5(C4)OC(=O)Nc4ccc(Cl)c(F)c45)c3)cn2)C1
10 µM	O=C1Nc2ccc(Cl)c(F)c2[C@]2(CCN(c3cncc(C(=O)NCc4ccc(Cn5ccccc5=O)nc4)c3)C2)O1
10 µM	Cc1cnn(Cc2ccc(CNC(=O)c3cncc(N4CC[C@]5(C4)OC(=O)Nc4ccc(Cl)c(F)c45)c3)cn2)c1
10 µM	O=C1Nc2ccc(Cl)c(F)c2[C@]2(CCN(c3cncc(C(=O)NCc4ccc(N5CCC5)nc4)n3)C2)O1
